Counter-ions that a name gives are not always drawn.
The compounds below were run against Coagulation factor XI (Homo sapiens, UniProt P03951) (assay: human FXIa inhibitor potency, dose response, biochemical (AID 679)).
Sequence of Coagulation factor XI (P03951 19-387 limits assumed): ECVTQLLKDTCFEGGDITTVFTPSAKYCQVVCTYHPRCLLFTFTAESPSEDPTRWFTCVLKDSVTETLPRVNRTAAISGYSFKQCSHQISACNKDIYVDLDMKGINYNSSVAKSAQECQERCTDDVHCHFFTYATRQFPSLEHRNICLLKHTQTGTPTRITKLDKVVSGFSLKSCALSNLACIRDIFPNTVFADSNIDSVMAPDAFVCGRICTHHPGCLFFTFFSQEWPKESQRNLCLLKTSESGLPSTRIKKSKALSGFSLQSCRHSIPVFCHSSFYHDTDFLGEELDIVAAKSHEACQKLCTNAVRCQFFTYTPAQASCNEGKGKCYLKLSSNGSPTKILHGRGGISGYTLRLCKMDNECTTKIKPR
Sequence of Coagulation factor XI (P03951 388-625 limits assumed): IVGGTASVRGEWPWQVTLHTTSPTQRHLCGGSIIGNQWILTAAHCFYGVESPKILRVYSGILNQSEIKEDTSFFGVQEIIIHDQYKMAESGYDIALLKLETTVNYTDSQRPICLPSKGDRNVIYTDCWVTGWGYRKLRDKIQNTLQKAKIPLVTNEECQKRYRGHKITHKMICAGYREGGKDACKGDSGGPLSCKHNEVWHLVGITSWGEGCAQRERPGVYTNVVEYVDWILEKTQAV

Row | SMILES | IC50 [µM]
1 | O=c1nc(-c2ccccc2)c2cc(Cl)ccc2[nH]1 | > 50
2 | O=S(=O)(Nc1cccc2nsnc12)c1ccccc1 | 9.3
3 | COc1ccc(S(=O)(=O)N2CCC(C(=O)N3CCc4ccccc4C3)CC2)cc1Cl | 6.26
4 | COc1ccc(Cn2nnnc2C(c2ccccc2Cl)N2CCC(C(N)=O)CC2)cc1 (centres undefined) | > 50
5 | O=C(NC(C(=O)c1ccccc1)n1c(=O)cc[nH]c1=S)c1ccccc1 (centres undefined) | > 50
6 | CNCCCc1ccccc1 | > 50
7 | COc1ccc(CC(=O)NCc2ccc3c(c2)OCO3)cc1 | > 50
8 | Cc1ccc(NC(=O)CCn2cccc2)cc1 | > 50
9 | CCCC1CCc2c(sc(N)c2C(N)=O)C1 (centres undefined) | > 50
10 | CCN(CC)CCNC(=O)C(C)c1nn(C)c(=O)c2ccccc12 (centres undefined) | > 50
11 | N#Cc1cc2c(nc1SCC(=O)Nc1sc3c(c1C#N)CCC3)CCC2 | > 50
12 | OCCCn1c(-c2ccccc2)nc(=S)c2c1CCCC2 | > 50
13 | O=C(CCSc1nnc2ccc3ccccc3n12)Nc1ccc(F)cc1 | > 50
14 | N#Cc1ccc(NC(=O)COC(=O)CNC(=O)C2CCCCC2)cc1 | > 50
15 | O=C(NCc1ccccc1)C1CCCN(S(=O)(=O)c2cccc3nonc23)C1 (centres undefined) [1-(2,1,3-benzoxadiazol-4-ylsulfonyl)-N-benzylpiperidine-3-carboxamide] | > 50
16 | Cc1ccc(C(=O)n2nc(-c3cccnc3)nc2N)cc1 [1-(4-methylbenzoyl)-3-(3-pyridinyl)-1H-1,2,4-triazol-5-amine] | > 50
17 | O=C(c1cn(-c2ccccc2)nc1-c1ccncc1)n1nnc2ccccc21 [1-{[1-phenyl-3-(4-pyridinyl)-1H-pyrazol-4-yl]carbonyl}-1H-1,2,3-benzotriazole] | 0.707
18 | CCn1nc(CC(=O)Nc2nnc(CC(=O)N3CCCC3)s2)c2ccccc2c1=O [2-(3-ethyl-4-oxo-1-phthalazinyl)-N-[5-[2-oxo-2-(1-pyrrolidinyl)ethyl]-1,3,4-thiadiazol-2-yl]acetamide] | > 50
19 | Cn1c(SCC(=O)NC2CCCCC2)nnc1-c1cccc(N)c1 [2-[5-(3-Amino-phenyl)-4-methyl-4H-[1,2,4]triazol-3-ylsulfanyl]-N-cyclohexyl-acetamide] | > 50
20 | CCC(CO)NCc1ccc(OC2CCCC2)cc1 (centres undefined) [2-[(4-cyclopentyloxyphenyl)methylamino]butan-1-ol;hydrochloride] | > 50
21 | Cc1ccccc1C(=O)N=c1sccn1C [2-methyl-N-(3-methyl-1,3-thiazol-2-ylidene)benzamide] | > 50
22 | O=c1c(-c2cc3ccccc3o2)[n+]([O-])c2ccccc2n1OCc1ccccn1 [3-(1-benzofuran-2-yl)-1-(2-pyridinylmethoxy)-2(1H)-quinoxalinone 4-oxide] | > 50
23 | CCCc1nc2ccccc2c(=O)n1-c1ccc(OC)cc1 [3-(4-Methoxy-phenyl)-2-propyl-3H-quinazolin-4-one] | > 50
24 | O=c1cccc2n1CC1CC2CN(S(=O)(=O)c2ccccc2)C1 (centres undefined) [3-Benzenesulfonyl-1,2,3,4,5,6-hexahydro-1,5-methano-pyrido[1,2-a][1,5]diazocin-8-one] | > 50
25 | COc1cc(OC)cc(-c2nnc(SCc3cccc(C(=O)O)c3)o2)c1 [3-[[5-(3,5-dimethoxyphenyl)-1,3,4-oxadiazol-2-yl]sulfanylmethyl]benzoic acid] | > 50
26 | O=C(CCCN1C(=O)c2ccccc2C1=O)NCC1CCCO1 (centres undefined) [4-[1,3-bis(oxidanylidene)isoindol-2-yl]-N-(oxolan-2-ylmethyl)butanamide] | 14.6
27 | COc1cc(OC)c2c(N)c(C#N)c(C(F)(F)C(F)(F)F)nc2c1 [4-azanyl-5,7-dimethoxy-2-[1,1,2,2,2-pentakis(fluoranyl)ethyl]quinoline-3-carbonitrile] | > 50
28 | O=C(Nc1ccccc1C(=O)N1CCOCC1)c1ccc(F)cc1 [4-fluoro-N-[2-[4-morpholinyl(oxo)methyl]phenyl]benzamide] | 21.4
29 | COc1ccc(OCCSc2nc[nH]n2)cc1 [5-[2-(4-methoxyphenoxy)ethylsulfanyl]-1H-1,2,4-triazole] | > 50
